The pIC50 is −log10 of the IC50, conventionally taken in molar units. Lower therefore signals a high IC50.

SMILES strings stand for the structures. pIC50: −log10 of the molar value.

The assay deals with JAK2 (Homo sapiens (Human), UniProt O60674). Kind of assay: JAK2 Z-Lyte biochemical assay. The note with it: commercial JAK2 Z-Lyte assay from Invitrogen. Here is the method: The JAK2 Z-Lyte biochemical assay was performed according to manufacturer's instructions (Life Technologies).
JAK2, sequence (O60674 whole entry): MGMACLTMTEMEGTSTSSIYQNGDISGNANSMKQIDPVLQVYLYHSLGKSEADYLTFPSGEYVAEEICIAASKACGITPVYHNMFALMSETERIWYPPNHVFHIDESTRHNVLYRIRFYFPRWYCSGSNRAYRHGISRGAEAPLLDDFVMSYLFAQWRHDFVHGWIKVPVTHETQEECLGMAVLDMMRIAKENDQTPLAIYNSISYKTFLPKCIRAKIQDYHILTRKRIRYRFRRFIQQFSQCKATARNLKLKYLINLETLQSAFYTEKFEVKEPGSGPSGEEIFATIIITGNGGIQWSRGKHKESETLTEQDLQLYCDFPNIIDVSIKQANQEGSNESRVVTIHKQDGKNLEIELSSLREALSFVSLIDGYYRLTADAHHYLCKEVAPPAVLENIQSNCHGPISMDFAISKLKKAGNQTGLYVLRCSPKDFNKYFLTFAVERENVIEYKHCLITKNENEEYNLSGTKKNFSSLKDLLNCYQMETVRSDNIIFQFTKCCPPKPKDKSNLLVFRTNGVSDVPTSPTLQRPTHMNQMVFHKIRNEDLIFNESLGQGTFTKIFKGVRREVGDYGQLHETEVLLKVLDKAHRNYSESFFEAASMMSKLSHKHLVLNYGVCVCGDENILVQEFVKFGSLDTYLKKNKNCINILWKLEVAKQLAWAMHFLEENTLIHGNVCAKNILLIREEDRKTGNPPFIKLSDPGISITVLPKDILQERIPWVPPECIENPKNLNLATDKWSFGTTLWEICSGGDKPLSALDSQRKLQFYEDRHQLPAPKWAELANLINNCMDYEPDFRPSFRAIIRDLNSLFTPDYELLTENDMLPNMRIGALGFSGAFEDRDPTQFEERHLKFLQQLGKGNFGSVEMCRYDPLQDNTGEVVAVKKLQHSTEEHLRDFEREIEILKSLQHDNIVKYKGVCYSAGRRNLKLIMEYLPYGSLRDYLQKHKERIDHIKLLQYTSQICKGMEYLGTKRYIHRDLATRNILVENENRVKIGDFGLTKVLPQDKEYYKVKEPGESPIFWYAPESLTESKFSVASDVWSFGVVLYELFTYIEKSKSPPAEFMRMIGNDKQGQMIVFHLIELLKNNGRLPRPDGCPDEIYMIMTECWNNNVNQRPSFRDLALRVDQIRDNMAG
On to `CCN1CCN(Cc2cc(NC(=O)c3ccc(C)c(-c4ccc5nc(NC(=O)C6CC6)nn5c4)c3)cc(C(F)(F)F)c2)CC1` [Compound I-1, 3-(2-(cyclopropanecarboxamido)-[1,2,4]triazolo[1,5-a]pyridin-6-yl)-N-(3-((4-ethylpiperazin-1-yl)methyl)-5-(trifluoromethyl)phenyl)-4-methylbenzamide], for which the pIC50 was 6.29.
With `CCN1CCN(Cc2cc(NC(=O)c3ccc(C)c(-c4ccn5nc(NC(=O)C6CC6)nc5c4)c3)cc(C(F)(F)F)c2)CC1` [Compound I-3, 3-(2-(cyclopropanecarboxamido)-[1,2,4]triazolo[1,5-a]pyridin-7-yl)-N-(3-((4-ethylpiperazin-1-yl)methyl)-5-(trifluoromethyl)phenyl)-4-methylbenzamide], the negative-log IC50 (pIC50) was 6.01.
Regarding `CCN1CCN(Cc2cc(NC(=O)c3ccc(C)c(-c4cn5cc(NC(=O)C6CC6)nc5cn4)c3)cc(C(F)(F)F)c2)CC1` [Compound I-4, 3-(2-(cyclopropanecarboxamido)imidazo[1,2-a]pyrazin-6-yl)-N-(3-((4-ethylpiperazin-1-yl)methyl)-5-(trifluoromethyl)phenyl)-4-methylbenzamide], the pIC50 was 6.02.
For `CCN1CCN(Cc2cc(NC(=O)c3ccc(C)c(-c4cnc5nc(NC(=O)C6CC6)cn5c4)c3)cc(C(F)(F)F)c2)CC1` [Compound I-5, 3-(2-(cyclopropanecarboxamido)imidazo[1,2-a]pyrimidin-6-yl)-N-(3-((4-ethylpiperazin-1-yl)methyl)-5-(trifluoromethyl)phenyl)-4-methylbenzamide] the value was 5.02; for `CCN1CCN(Cc2ccc(NC(=O)c3ccc(C)c(-c4ccc5nc(NC(=O)C6CC6)cn5c4)c3)cc2C(F)(F)F)CC1` [Compound I-7, 3-(2-(cyclopropanecarboxamido)imidazo[1,2-a]pyridin-6-yl)-N-(4-((4-ethylpiperazin-1-yl)methyl)-3-(trifluoromethyl)phenyl)-4-methylbenzamide], 6.17; for `CCN1CCN(Cc2cc(C(=O)Nc3ccc(C)c(-c4ccc5nc(NC(=O)C6CC6)cn5c4)c3)cc(C(F)(F)F)c2)CC1` [Compound I-8, N-(3-(2-(cyclopropanecarboxamido)imidazo[1,2-a]pyridin-6-yl)-4-methylphenyl)-3-((4-ethylpiperazin-1-yl)methyl)-5-(trifluoromethyl)benzamide], 6.08.
To `Cc1ccc(C(=O)Nc2cc(CN3CCNCC3)cc(C(F)(F)F)c2)cc1-c1ccc2nc(NC(=O)C3CC3)cn2n1` [Compound I-9, 3-(2-(cyclopropanecarboxamido)imidazo[1,2-b]pyridazin-6-yl)-4-methyl-N-(3-(piperazin-1-ylmethyl)-5-(trifluoromethyl)phenyl)benzamide] belongs 6.52.
For `CC(=O)N1CCN(Cc2cc(NC(=O)c3ccc(C)c(-c4ccc5nc(NC(=O)C6CC6)cn5n4)c3)cc(C(F)(F)F)c2)CC1` [Compound I-10, N-(3-((4-acetylpiperazin-1-yl)methyl)-5-(trifluoromethyl)phenyl)-3-(2-(cyclopropanecarboxamido)imidazo[1,2-b]pyridazin-6-yl)-4-methylbenzamide] the value was 5.87; for `CCS(=O)(=O)N1CCN(Cc2cc(NC(=O)c3ccc(C)c(-c4ccc5nc(NC(=O)C6CC6)cn5n4)c3)cc(C(F)(F)F)c2)CC1` [Compound I-11, 3-(2-(cyclopropanecarboxamido)imidazo[1,2-b]pyridazin-6-yl)-N-(3-((4-(ethylsulfonyl)piperazin-1-yl)methyl)-5-(trifluoromethyl)phenyl)-4-methylbenzamide], 5.58.
`COCCN1CCN(Cc2cc(NC(=O)c3ccc(C)c(-c4ccc5nc(NC(=O)C6CC6)cn5n4)c3)cc(C(F)(F)F)c2)CC1` [Compound I-12, 3-(2-(cyclopropanecarboxamido)imidazo[1,2-b]pyridazin-6-yl)-N-(3-((4-(2-methoxyethyl)piperazin-1-yl)methyl)-5-(trifluoromethyl)phenyl)-4-methylbenzamide] had a pIC50 of 5.74.
In the case of `CCOC(=O)N1CCN(Cc2cc(NC(=O)c3ccc(C)c(-c4ccc5nc(NC(=O)C6CC6)cn5n4)c3)cc(C(F)(F)F)c2)CC1` [Compound I-13, ethyl 4-(3-(3-(2-(cyclopropanecarboxamido)imidazo[1,2-b]pyridazin-6-yl)-4-methylbenzamido)-5-(trifluoromethyl)benzyl)piperazine-1-carboxylate], the pIC50 is 5.50.
To `Cc1ccc(C(=O)Nc2cc(CN3CCN(CC4CC4)CC3)cc(C(F)(F)F)c2)cc1-c1ccc2nc(NC(=O)C3CC3)cn2n1` [Compound I-14, 3-(2-(cyclopropanecarboxamido)imidazo[1,2-b]pyridazin-6-yl)-N-(3-((4-(cyclopropylmethyl)piperazin-1-yl)methyl)-5-(trifluoromethyl)phenyl)-4-methylbenzamide] belongs 6.11; to `CCN1CCN(Cc2ccc(NC(=O)c3ccc(C)c(-c4ccc5nc(NC(=O)C6CC6)cn5n4)c3)cc2C(F)(F)F)CC1` [Compound I-15, 3-(2-(cyclopropanecarboxamido)imidazo[1,2-b]pyridazin-6-yl)-N-(4-((4-ethylpiperazin-1-yl)methyl)-3-(trifluoromethyl)phenyl)-4-methylbenzamide], 5.96.
To `CCN1CCN(Cc2cc(NC(=O)c3cnc(C)c(-c4ccc5nc(NC(=O)C6CC6)cn5n4)c3)cc(C(F)(F)F)c2)CC1` [Compound I-16, 5-(2-(cyclopropanecarboxamido)imidazo[1,2-b]pyridazin-6-yl)-N-(3-((4-ethylpiperazin-1-yl)methyl)-5-(trifluoromethyl)phenyl)-6-methylnicotinamide] belongs 6.31; to `CCN1CCN(Cc2cc(NC(=O)c3cc(-c4ccc5nc(NC(=O)C6CC6)cn5n4)c(C)cc3F)cc(C(F)(F)F)c2)CC1` [Compound I-17, 5-(2-(cyclopropanecarboxamido)imidazo[1,2-b]pyridazin-6-yl)-N-(3-((4-ethylpiperazin-1-yl)methyl)-5-(trifluoromethyl)phenyl)-2-fluoro-4-methylbenzamide], 6.03; to `CCN1CCN(Cc2cc(NC(=O)c3cc(-c4ccc5nc(NC(=O)C6CC6)cn5n4)c(C)cn3)cc(C(F)(F)F)c2)CC1` [Compound I-18, 4-(2-(cyclopropanecarboxamido)imidazo[1,2-b]pyridazin-6-yl)-N-(3-((4-ethylpiperazin-1-yl)methyl)-5-(trifluoromethyl)phenyl)-5-methylpicolinamide], 6.01.
To `CCN1CCN(Cc2cc(NC(=O)c3cc(-c4ccc5nc(NC(=O)C6CC6)cn5n4)c(C)cc3C)cc(C(F)(F)F)c2)CC1` [Compound I-19, 5-(2-(cyclopropanecarboxamido)imidazo[1,2-b]pyridazin-6-yl)-N-(3-((4-ethylpiperazin-1-yl)methyl)-5-(trifluoromethyl)phenyl)-2,4-dimethylbenzamide] belongs 5.06.
With `CCc1ccc(C(=O)Nc2cc(CN3CCN(CC)CC3)cc(C(F)(F)F)c2)cc1-c1ccc2nc(NC(=O)C3CC3)cn2n1` [Compound I-20, 3-(2-(cyclopropanecarboxamido)imidazo[1,2-b]pyridazin-6-yl)-4-ethyl-N-(3-((4-ethylpiperazin-1-yl)methyl)-5-(trifluoromethyl)phenyl)benzamide], the pIC50 was 6.40.
To `CCN1CCN(Cc2cc(NC(=O)c3cc(-c4ccc5nc(NC(=O)C6CC6)cn5n4)c(C)nc3O)cc(C(F)(F)F)c2)CC1` [Compound I-21, 5-(2-(cyclopropanecarboxamido)imidazo[1,2-b]pyridazin-6-yl)-N-(3-((4-ethylpiperazin-1-yl)methyl)-5-(trifluoromethyl)phenyl)-2-hydroxy-6-methylnicotinamide] belongs less than 5.00; to `CCN1CCN(Cc2cc(NC(=O)c3ccc(C(F)(F)F)c(-c4ccc5nc(NC(=O)C6CC6)cn5n4)c3)cc(C(F)(F)F)c2)CC1` [Compound I-22, 3-(2-(cyclopropanecarboxamido)imidazo[1,2-b]pyridazin-6-yl)-N-(3-((4-ethylpiperazin-1-yl)methyl)-5-(trifluoromethyl)phenyl)-4-(trifluoromethyl)benzamide], 5.72.
To `CCN1CCN(Cc2cc(NC(=O)c3ccc(C#N)c(-c4ccc5nc(NC(=O)C6CC6)cn5n4)c3)cc(C(F)(F)F)c2)CC1` [Compound I-23, 4-cyano-3-(2-(cyclopropanecarboxamido)imidazo[1,2-b]pyridazin-6-yl)-N-(3-((4-ethylpiperazin-1-yl)methyl)-5-(trifluoromethyl)phenyl)benzamide] belongs 5.29; to `CCN1CCN(Cc2cc(NC(=O)c3ccc(C)c(-c4ccc5nc(N)cn5n4)c3)cc(C(F)(F)F)c2)CC1` [Compound I-24, 3-(2-aminoimidazo [1,2-b]pyridazin-6-yl)-N-(3-((4-ethylpiperazin-1-yl)methyl)-5-(trifluoromethyl)phenyl)-4-methylbenzamide], less than 5.48.
As to `CCN1CCN(Cc2cc(NC(=O)c3ccc(C)c(-c4ccc5nc(NC(=O)C6CC6)n(C)c5c4)c3)cc(C(F)(F)F)c2)CC1` [Compound I-25, 3-(2-(cyclopropanecarboxamido)-1-methyl-1H-benzo[d]imidazol-6-yl)-N-(3-((4-ethylpiperazin-1-yl)methyl)-5-(trifluoromethyl)phenyl)-4-methylbenzamide], the negative logarithm of the IC50 (pIC50) is 5.15.
For `CCN1CCN(Cc2cc(NC(=O)c3ccc(C)c(-c4ccc5c(c4)nc(NC(=O)C4CC4)n5C)c3)cc(C(F)(F)F)c2)CC1` [Compound I-26, 3-(2-(cyclopropanecarboxamido)-1-methyl-1H-benzo[d]imidazol-5-yl)-N-(3-((4-ethylpiperazin-1-yl)methyl)-5-(trifluoromethyl)phenyl)-4-methylbenzamide] the value was less than 5.00.
As to `CCN1CCN(Cc2cc(NC(=O)c3ccc(C)c(-c4ccc5[nH]c(NC(=O)C6CC6)nc5n4)c3)cc(C(F)(F)F)c2)CC1` [Compound I-27, 3-(2-(cyclopropanecarboxamido)-1H-imidazo[4,5-b]pyridin-5-yl)-N-(3-((4-ethylpiperazin-1-yl)methyl)-5-(trifluoromethyl)phenyl)-4-methylbenzamide], the pIC50 is 5.82.

The values are drawn from patent US20230391768A2, “IMIDAZOPYRIDINE DERIVATIVES AND AZA-IMIDAZOPYRIDINE DERIVATIVES AS JANUS KINASE 2 INHIBITORS AND USES THEREOF” (Dana-Farber Cancer Institute, Inc., priority 2018, published 2023).
